What was measured:
[1] = system: AmCYP04 (Seq ID 27); assay: Herbicide degradation in transgenic yeast cells expressing cytochrome P450 AmCYP04; format: in vitro ADME, Alopecurus myosuroides; settings: transgenic yeast cells (S. cerevisiae BJ5459) expressing AmCYP04, Seq ID 27, recovery of herbicide in reference to control, UPLC-MS/MS
Description: (§1) The cDNA of CYP450 monooxygenase genes were synthesized with an optimized codon usage for yeast, cloned via uniqueBamHI-SalI restriction sites in the low copy pESC-ura expression vector (Agilent Technologies). Constructs were transformed into S. cerevisiae wild type strain BJ5459 (MATa ura3-5 trp lys2-801 leu2Δ1 his3Δ200 pep4Δ::HIS3 prb1Δ1.6R can1 GAL cir^+; ATCC 208284) using a Yeast Maker Transformation System from Clontech and verified by colony PCR. Positive clones were selected on minimal synthetic-defined media (SD) supplemented with appropriate dropout solution. The strain had no obvious phenotypes. Cells were induced in SG-Ura medium (same composition as SD but with galactose instead of glucose) for 24 h (Pompon et al., Methods in Enzymology 272:51-64 (1996); Urban et al., Eur. J. Biochem. 222:[…] (1994)). Optimal heterologous protein expression was assayed using Western Blot analysis.
(§2) 96 deep well growth plates (STARLAB GmbH) charged with 700 μL SDA medium are inoculated with the respective yeast strains from cryostock and incubated at 30° C., 400 rpm. After 48 h, an aliquot is transferred into a new plate with fresh SDA medium 400 rpm. After 4 h the cultures are spun down, the supernatant discarded and the pellets resuspended in 700 μL pre-warmed SGA media to induce protein expression at 30° C. and 400 rpm. After an incubation time of 24 h, 7 μL herbicide solution (500 μM DMSO stock solution) or solvent control is added to the yeast culture incubated for additional 24 h. The herbicide conversion is stopped by adding 700 μL acetonitrile followed by ultrasonification. The homogenate is prepared for UPLC-MS/MS analysis. The degradation rate was calculated by the determination of the recovery of the herbicide in reference to the control.

[2] = system: transgenic plants expressing Am_CYP03 (SEQ ID 4); assay: Greenhouse herbicide tolerance of transgenic plants expressing Am_CYP03 (FIG. 1); format: in vivo, Arabidopsis thaliana; settings: plants expressing Am_CYP03 (SEQ ID 4) vs wildtype, different application rates (g/ha)
Method: (§3) Transgenic Arabidopsis thaliana plants were assayed for improved tolerance to saflufenacil, 1,5-dimethyl-6-thioxo-3-(2,2,7-trifluoro-3-oxo-4-(prop-2-ynyl)-3,4-dihydro-2H-benzo[b][1,4]oxazin-6-yl)-1,3,5-triazinane-2,4-dione (CAS 1258836-72-4), chlorotoluron, pendimethalin, flumioxazin, butafenacil, acifluorfen, lactofen, bifenox, diuron, sulfentrazon, tepraloxydim, coumarone-derivative herbicides, azine-derivative herbicides in 48-well plates. Therefore, T2 seeds are surface sterilized by stirring for 5 min in ethanol+water (70+30 by volume), rinsing one time with ethanol+water (70+30 by volume) and two times with sterile, deionized water. The seeds are resuspended in 0.1% agar dissolved in water (w/v) Four to five seeds per well are plated on solid nutrient medium consisting of half-strength murashige skoog nutrient solution, pH 5.8 (Murashige and Skoog (1962) Physiologia Plantarum 15: 473-497). Compounds are dissolved in dimethylsulfoxid (DMSO) and added to the medium prior solidification (final DMSO concentration 0.1%). Multi well plates are incubated in a growth chamber at 22° C., 75% relative humidity and 110 μmol Phot*m^2*s^−1 with 14:10 h light: dark photoperiod. Growth inhibition is evaluated seven to ten days after seeding in comparison to wild type plants. Additionally, transgenic T1 Arabidopsis plants were tested for improved tolerance to herbicides in greenhouse studies with the following herbicides: saflufenacil, 1,5-dimethyl-6-thioxo-3-(2,2,7-trifluoro-3-oxo-4-(prop-2-ynyl)-3,4-dihydro-2H-benzo[b][1,4]oxazin-6-yl)-1,3,5-triazinane-2,4-dione (CAS 1258836-72-4), chlorotoluron, pendimethalin, flumioxazin, butafenacil, acifluorfen, lactofen, bifenox, diuron, sulfentrazone, tepraloxydim, coumarone-derivative herbicides, azine-derivative herbicides.

[3] = system: AmCYP03_1 (Seq ID 4); assay: Herbicide degradation in transgenic yeast cells expressing cytochrome P450 AmCYP03_1; format: in vitro ADME, Alopecurus myosuroides; settings: transgenic yeast cells (S. cerevisiae BJ5459) expressing AmCYP03_1, Seq ID 4, recovery of herbicide in reference to control, UPLC-MS/MS
Description: as §1, §2

[4] = system: AmCYP03b (Seq ID 6); assay: Herbicide degradation in transgenic yeast cells expressing cytochrome P450 AmCYP03b; format: in vitro ADME, Alopecurus myosuroides; settings: transgenic yeast cells (S. cerevisiae BJ5459) expressing AmCYP03b, recovery of herbicide in reference to control, UPLC-MS/MS
Description: as §1, §2

[5] = system: transgenic plants expressing Am_CYP04 (SEQ ID 27); assay: Greenhouse herbicide tolerance of transgenic plants expressing Am_CYP04 (FIG. 2); format: in vivo, Arabidopsis thaliana; settings: plants expressing Am_CYP04 (SEQ ID 27) vs wildtype, different application rates (g/ha)
Method: as §3

[6] = system: AmCYP12_1 (Seq ID 45); assay: Herbicide degradation in transgenic yeast cells expressing cytochrome P450 AmCYP12_1; format: in vitro ADME, Alopecurus myosuroides; settings: transgenic yeast cells (S. cerevisiae BJ5459) expressing AmCYP12_1, Seq ID 45, recovery of herbicide in reference to control, UPLC-MS/MS
Description: as §1, §2

[7] = system: AmCYP01 (Seq ID 2); assay: Herbicide degradation in transgenic yeast cells expressing cytochrome P450 AmCYP01; format: in vitro ADME, Alopecurus myosuroides; settings: transgenic yeast cells (S. cerevisiae BJ5459) expressing AmCYP01, Seq ID 2, recovery of herbicide in reference to control, UPLC-MS/MS
Description: as §1, §2

SMILES	Degradation rate of listed herbicidal compounds within 24 h [1]	Phenotype (injury) of transgenic plants compared to non-transgenic plants [2]	Degradation rate of listed herbicidal compounds within 24 h [3]	Degradation rate of listed herbicidal compounds within 24 h [4]	Phenotype (injury) of transgenic plants compared to non-transgenic plants [5]	Degradation rate of listed herbicidal compounds within 24 h [6]	Degradation rate of listed herbicidal compounds within 24 h [7]
CC(C)N(C)S(=O)(=O)NC(=O)c1cc(-n2c(=O)cc(C(F)(F)F)n(C)c2=O)c(F)cc1Cl [saflufenacil, reference compound]	18	much less injured	10	9	much less injured	20	20
Cc1ccc(NC(=O)N(C)C)cc1Cl [Chlorotoluron, reference compound]	26	much less injured	32	29	much less injured	22	18
